Test results as given in US20080200538A1, “Inhibition of Monocyte Survival, Differentiation, or Proliferation” (The Ohio State University Research Foundation, priority 2005, published 2008).

Key:
caspase-9 = assay: Caspase-9 activity, LEHD-AFC assay, THP-1 lysates; format: cell-based, human; details: THP-1, 50 μM apigenin
Method: FIG. 3. Apigenin induces caspase activation in monocytic leukemia. THP-1 (top) and U937 (bottom) leukemia cells were treated for various lengths of time with 50 μM apigenin or DMSO (NT). (A and C) Caspase-9 activity was determined by the LEHDAFC assay. (B and D) Caspase-3 activity was determined by the DEVD-AFC assay. Data represents means ±SEM (N=3).
For measurements of caspase activity, cells were plated at a density of 1.5×10^6 cells/well. After treatment, cells extracts were prepared as previously described (Doseff, A. I., Baker J. H., Bourgeois T. A. and Wewers M. D. (2003) Interleukin-4-induced zpoptosis entails caspase activation and suppression of extracellular signal-regulated kinase phosphorylation. Am. J. Resp. Cell Mol. Biol., 29, 367-374). Protein extracts were incubated with 20 μM DEVD-AFC to determine caspase-3 activity or LEHD-AFC to determine caspase-9 activity (Enzyme Systems Products, Livermore, Calif.) in a cytobuffer as previously described (Doseff, A. I., Baker J. H., Bourgeois T. A. and Wewers M. D. (2003) Interleukin-4-induced zpoptosis entails caspase activation and suppression of extracellular signal-regulated kinase phosphorylation. Am. J. Resp. Cell Mol. Biol., 29, 367-374). Levels of released AFC were measured using Cytofluor 400 fluorimeter (Filters: excitation 400 nm, emission 508 nm; Perspective Co., Framingham, Mass.).

IL-8 = IL-8 release by LPS stimulated monocytes; format: cell-based

O=c1cc(-c2ccc(O)cc2)oc2cc(O)cc(O)c12 [apigenin]
caspase-9 activity, time course (caspase-9): observed after 6 h of treatment with apigenin and remained high after 9 h of treatment, decreasing after 12 h | release of IL-8 (IL-8): inhibits
